Assay results published in patent US20150105386A1, “4-(4-PYRIDINYL)-BENZAMIDES AND THEIR USE AS ROCK ACTIVITY MODULATORS” (AbbVie Deutschland GmbH & Co KG, priority 2007, published 2015).

Target: T1, hROCK-2 (Homo sapiens, UniProt O75116)
T1 construct: purchased Upstate
Test: ROCK-2 Assay (33P-ATP FlashPlate kinase assay, biotinylated S6 peptide)
Type: biochemical
Details: hROCK-2 0.8 nM, 5 μM ATP, 1.5 μM biotinylated S6 peptide, room temperature, 60 min
Description: The reaction is stopped by addition of 150 μl of 0.1 M EDTA in Dulbecco's PBS. 170 μl from each well are loaded onto a FlashPlate (PerkinElmer) and incubated at room temperature for 30 min.

T1 sequence (O75116 whole entry): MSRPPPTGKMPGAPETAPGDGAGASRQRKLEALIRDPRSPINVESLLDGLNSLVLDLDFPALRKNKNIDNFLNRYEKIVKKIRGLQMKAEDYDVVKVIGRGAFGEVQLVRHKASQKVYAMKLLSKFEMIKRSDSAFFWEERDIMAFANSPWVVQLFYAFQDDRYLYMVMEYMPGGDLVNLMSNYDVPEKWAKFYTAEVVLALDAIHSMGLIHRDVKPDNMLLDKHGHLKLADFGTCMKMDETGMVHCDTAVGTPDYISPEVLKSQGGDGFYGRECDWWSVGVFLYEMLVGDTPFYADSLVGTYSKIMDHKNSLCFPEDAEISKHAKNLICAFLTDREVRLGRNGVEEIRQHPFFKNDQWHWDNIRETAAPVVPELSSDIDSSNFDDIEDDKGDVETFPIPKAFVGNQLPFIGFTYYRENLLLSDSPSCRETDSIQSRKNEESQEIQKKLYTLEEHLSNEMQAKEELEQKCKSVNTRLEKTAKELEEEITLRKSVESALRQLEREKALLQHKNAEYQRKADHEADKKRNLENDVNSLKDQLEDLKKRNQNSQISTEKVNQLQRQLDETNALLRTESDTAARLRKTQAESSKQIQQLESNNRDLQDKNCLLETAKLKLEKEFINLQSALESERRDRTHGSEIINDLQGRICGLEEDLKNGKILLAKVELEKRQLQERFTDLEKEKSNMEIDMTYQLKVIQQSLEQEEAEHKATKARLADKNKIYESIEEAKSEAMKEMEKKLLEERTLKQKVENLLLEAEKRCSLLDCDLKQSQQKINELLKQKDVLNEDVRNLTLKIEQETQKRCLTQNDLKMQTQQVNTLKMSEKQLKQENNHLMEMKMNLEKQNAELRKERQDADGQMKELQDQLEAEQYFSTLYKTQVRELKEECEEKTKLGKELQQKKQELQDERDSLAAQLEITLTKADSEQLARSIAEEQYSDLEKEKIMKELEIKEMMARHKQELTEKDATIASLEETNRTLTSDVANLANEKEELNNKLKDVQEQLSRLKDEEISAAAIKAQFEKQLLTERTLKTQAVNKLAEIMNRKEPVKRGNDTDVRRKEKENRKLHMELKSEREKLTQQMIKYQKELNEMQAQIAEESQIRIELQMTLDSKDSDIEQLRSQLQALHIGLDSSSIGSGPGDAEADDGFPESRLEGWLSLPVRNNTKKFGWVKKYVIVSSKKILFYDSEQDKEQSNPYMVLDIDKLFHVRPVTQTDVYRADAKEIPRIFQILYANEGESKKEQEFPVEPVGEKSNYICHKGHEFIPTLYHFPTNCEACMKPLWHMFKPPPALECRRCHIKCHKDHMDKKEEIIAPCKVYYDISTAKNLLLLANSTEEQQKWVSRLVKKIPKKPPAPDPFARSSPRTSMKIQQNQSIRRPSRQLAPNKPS

Compound | Ki
Cc1cnccc1-c1ccc(C(=O)N[C@H](C)c2ccc(Cl)cc2)cc1 [Example 168, N—[(R)-1-(4-chloro-phenyl)-ethyl]-4-(3-methyl-pyridin-4-yl)-benzamide] | 50 to 500 nM
CC(NC(=O)c1ccc(-c2ccncc2)cc1)c1ccccn1 (stereo not drawn) [Example 76, 4-pyridin-4-yl-N-(1-pyridin-2-ylethyl)benzamide] | 50 to 500 nM
Cc1cnccc1-c1ccc(C(=O)N[C@H](C)c2ccc3ccccc3c2)cc1 [Example 170, 4-(3-methyl-pyridin-4-yl)-N—((R)-1-naphthalen-2-yl-ethyl)-benzamide] | 50 to 500 nM
C[C@@H](NC(=O)c1ccc(-c2ccncc2)cc1)c1ccccc1C(F)(F)F [Example 86, 4-pyridin-4-yl-N-{(1R)-1-[2-(trifluoromethyl)phenyl]ethyl}benzamide] | 50 to 500 nM
COc1cccc([C@H](C)NC(=O)c2ccc(-c3ccncc3)cc2OC)c1 [Example 130, 2-methoxy-N—[(S)-1-(3-methoxy-phenyl)-ethyl]-4-pyridin-4-yl-benzamide] | 50 to 500 nM
Cc1cnccc1-c1ccc(C(=O)N[C@H](C)c2ccc(Br)cc2)cc1 [Example 166, N—[(R)-1-(4-bromo-phenyl)-ethyl]-4-(3-methyl-pyridin-4-yl)-benzamide] | 50 to 500 nM
Cc1ccc(C(C)NC(=O)c2ccc(-c3ccncc3)cc2)o1 (stereo not drawn) [Example 71] | 50 to 500 nM
O=C(N[C@H](CO)Cc1ccc(O)cc1)c1ccc(-c2ccncc2)cc1 [Example 15, N-[(1S)-2-hydroxy-1-(4-hydroxybenzyl)ethyl]-4-pyridin-4-ylbenzamide] | 50 to 500 nM
COc1ccc(C(C)NC(=O)c2ccc(-c3ccncc3)cc2)c2ccccc12 (stereo not drawn) [Example 189, N-[1-(4-methoxy-naphthalen-1-yl)-ethyl]-4-pyridin-4-yl-benzamide] | 50 to 500 nM
O=C(N[C@H](CO)Cc1c[nH]c2ccccc12)c1ccc(-c2ccncc2)cc1 [Example 14, N-[(1S)-2-hydroxy-1-(1H-indol-3-ylmethyl)ethyl]-4-pyridin-4-ylbenzamide] | 50 to 500 nM
C[C@@H](NC(=O)c1ccc(-c2ccncc2)cc1Cl)c1ccccc1 [Example 191, 2-chloro-N—((R)-1-phenyl-ethyl)-4-pyridin-4-yl-benzamide] | 50 to 500 nM
COc1cccc([C@H](C)NC(=O)c2ccc(-c3ccncc3C)cc2)c1 [Example 179, N—[(S)-1-(3-methoxy-phenyl)-ethyl]-4-(3-methyl-pyridin-4-yl)-benzamide] | 50 to 500 nM
Cc1ccc([C@@H](C)NC(=O)c2ccc(-c3ccncc3)cc2)cc1 [Example 82, N-[(1R)-1-(4-methylphenyl)ethyl]-4-pyridin-4-ylbenzamide] | 50 to 500 nM
CC(C)COc1cccc(C(C)NC(=O)c2ccc(-c3ccncc3)cc2)c1 (stereo not drawn) [Example 153, N-[1-(3-isobutoxy-phenyl)-ethyl]-4-pyridin-4-yl-benzamide] | < 50 nM
CC(C)(C)OC(=O)NCC(NC(=O)c1ccc(-c2ccncc2)cc1)c1ccccc1 (stereo not drawn) [Example 3, tert-Butyl-{2-phenyl-2-[(4-pyridin-4-ylbenzoyl)amino]ethyl}carbamate] | 50 to 500 nM
COc1cc(-c2ccncc2)ccc1C(=O)N[C@@H](C)c1ccccc1 [Example 114, 2-methoxy-N—((S)-1-phenyl-ethyl)-4-pyridin-4-yl-benzamide] | 50 to 500 nM
C[C@@H](NC(=O)c1ccc(-c2ccncc2)cc1)c1ccccn1 [Example 80, 4-pyridin-4-yl-N-[(1R)-1-pyridin-2-ylethyl]benzamide] | 50 to 500 nM
COc1ccccc1C(CO)NC(=O)c1ccc(-c2ccncc2C)cc1 (stereo not drawn) [Example 171, N-[2-hydroxy-1-(2-methoxy-phenyl)-ethyl]-4-(3-methyl-pyridin-4-yl)-benzamide] | 50 to 500 nM
O=C(NC(CO)c1cccnc1)c1ccc(-c2ccncc2)cc1 (stereo not drawn) [Example 39, N-(2-hydroxy-1-pyridin-3-ylethyl)-4-pyridin-4-ylbenzamide] | 50 to 500 nM
COc1cccc([C@H](C)NC(=O)c2ccc(-c3ccncc3)c(F)c2)c1 [Example 236, 3-fluoro-N—[(S)-1-(3-methoxy-phenyl)-ethyl]-4-pyridin-4-yl-benzamide] | 50 to 500 nM
COc1cc(-c2ccncc2)ccc1C(=O)N[C@H](C)c1ccc2ccccc2c1 [Example 107, 2-methoxy-N—((R)-1-naphthalen-2-yl-ethyl)-4-pyridin-4-yl-benzamide] | 50 to 500 nM
COc1ccc(C(CN)NC(=O)c2ccc(-c3ccncc3)cc2)cc1 (stereo not drawn) [Example 44, N-[2-amino-1-(4-methoxyphenyl)ethyl]-4-pyridin-4-ylbenzamide] | 50 to 500 nM
CN1CCN(CC(NC(=O)c2ccc(-c3ccncc3)cc2)c2ccccc2)CC1 (stereo not drawn) [Example 33, N-[2-(4-methylpiperazin-1-yl)-1-phenylethyl]-4-pyridin-4-ylbenzamide] | 50 to 500 nM

Now from value to compound:

Ki | Compound
< 50 nM | Cc1ccc(C(CO)NC(=O)c2ccc(-c3ccncc3)cc2)cc1C (stereo not drawn) [Example 41, N-[1-(3,4-dimethylphenyl)-2-hydroxyethyl]-4-pyridin-4-ylbenzamide]
< 50 nM | Cc1cnccc1-c1ccc(C(=O)NC(CO)c2cccc3ccccc23)cc1 (stereo not drawn) [Example 172, N-(2-hydroxy-1-naphthalen-1-yl-ethyl)-4-(3-methyl-pyridin-4-yl)-benzamide]
< 50 nM | CCOc1cc(-c2ccncc2)ccc1C(=O)N[C@H](C)c1cccc(OC)c1 [Example 249, 2-ethoxy-N—[(R)-1-(3-methoxy-phenyl)-ethyl]-4-pyridin-4-yl-benzamide]
< 50 nM | C[C@@H](NC(=O)c1ccc(-c2ccncc2)cc1)c1ccc(F)cc1 [Example 85, N-[(1R)-1-(4-fluorophenyl)ethyl]-4-pyridin-4-ylbenzamide]
< 50 nM | COc1cc(-c2ccncc2)ccc1C(=O)NC(CO)c1cccc2ccccc12 (stereo not drawn) [Example 140, N-(2-hydroxy-1-naphthalen-1-yl-ethyl)-2-methoxy-4-pyridin-4-ylbenzamide]
< 50 nM | C[C@@H](NC(=O)c1ccc(-c2ccncc2)cc1)c1cccc2ccccc12 [Example 47, N-[(1R)-1-(1-naphthyl)ethyl]-4-pyridin-4-ylbenzamide]
< 50 nM | O=C(NC(CO)c1cccc2ccccc12)c1ccc(-c2ccncc2)cc1 (stereo not drawn) [Example 187, N-(2-hydroxy-1-naphthalen-1-yl-ethyl)-4-pyridin-4-yl-benzamide]
< 50 nM | COc1cccc([C@@H](C)NC(=O)c2ccc(-c3ccncc3)c(F)c2)c1 [Example 244, 3-fluoro-N—[(R)-1-(3-methoxy-phenyl)-ethyl]-4-pyridin-4-yl-benzamide]
< 50 nM | O=C(NC(Cn1ccnc1)c1ccccc1)c1ccc(-c2ccncc2)cc1 (stereo not drawn) [Example 35, N-[2-(1H-imidazol-1-yl)-1-phenylethyl]-4-pyridin-4-ylbenzamide]
< 50 nM | C[C@@H](NC(=O)c1ccc(-c2ccncc2)cc1)c1cccc(C(F)(F)F)c1 [Example 87, 4-pyridin-4-yl-N-{(1R)-1-[3-(trifluoromethyl)phenyl]ethyl}benzamide]
< 50 nM | COc1cccc(C(CN2CCCC2)NC(=O)c2ccc(-c3ccncc3)cc2)c1 (stereo not drawn) [Example 149, N-[1-(3-methoxy-phenyl)-2-pyrrolidin-1-yl-ethyl]-4-pyridin-4-yl-benzamide]
< 50 nM | COc1cc(-c2ccncc2)ccc1C(=O)N[C@H](CCO)c1ccccc1 [Example 94, N—((R)-3-hydroxy-1-phenyl-propyl)-2-methoxy-4-pyridin-4-yl-benzamide]
< 50 nM | Cc1cnccc1-c1ccc(C(=O)N[C@H](C)c2ccccc2)cc1 [Example 157, 4-(3-methyl-pyridin-4-yl)-N—((R)-1-phenyl-ethyl)-benzamide]
< 50 nM | Cc1cnccc1-c1ccc(C(=O)N[C@H](C)c2cccc3ccccc23)cc1 [Example 159, 4-(3-methyl-pyridin-4-yl)-N—((R)-1-naphthalen-1-yl-ethyl)-benzamide]
< 50 nM | O=C(N[C@H](CCO)c1ccccc1)c1ccc(-c2ccncc2)cc1 [Example 2, N-[(1R)-3-hydroxy-1-phenylpropyl]-4-pyridin-4-ylbenzamide]
< 50 nM | COc1cc(-c2ccncc2)ccc1C(=O)N[C@H](C)c1ccccc1 [Example 112, 2-methoxy-N—((R)-1-phenyl-ethyl)-4-pyridin-4-yl-benzamide]
< 50 nM | CN(C)CC(NC(=O)c1ccc(-c2ccncc2)cc1)c1ccccc1 (stereo not drawn) [Example 30, N-[2-(dimethylamino)-1-phenylethyl]-4-pyridin-4-ylbenzamide]
< 50 nM | O=C(N[C@@H](Cc1ccccc1)CN1CCCC1)c1ccc(-c2ccncc2)cc1 [Example 28, N-[(1S)-1-benzyl-2-pyrrolidin-1-ylethyl]-4-pyridin-4-ylbenzamide]
< 50 nM | C[C@@H](NC(=O)c1ccc(-c2ccncc2)cc1)c1ccccc1F [Example 88, N-[(1R)-1-(2-fluorophenyl)ethyl]-4-pyridin-4-ylbenzamide]
< 50 nM | COc1cc(-c2ccncc2)ccc1C(=O)N[C@H](C)c1cccc(C(F)(F)F)c1 [Example 132, 2-methoxy-4-pyridin-4-yl-N—[(R)-1-(3-trifluoromethyl-phenyl)-ethyl]-benzamide]
< 50 nM | Cc1ccc(C(CN)NC(=O)c2ccc(-c3ccncc3)cc2)cc1 (stereo not drawn) [Example 46, N-[2-amino-1-(4-methylphenyl)ethyl]-4-pyridin-4-ylbenzamide]
< 50 nM | C[C@@H](NC(=O)c1ccc(-c2ccncc2)cc1Cl)c1cccc2ccccc12 [Example 192, 2-chloro-N—((R)-1-naphthalen-1-yl-ethyl)-4-pyridin-4-yl-benzamide]
< 50 nM | COc1cccc([C@@H](C)NC(=O)c2ccc(-c3ccncc3)cc2Cl)c1 [Example 243, 2-chloro-N—[(R)-1-(3-methoxy-phenyl)-ethyl]-4-pyridin-4-yl-benzamide]
< 50 nM | O=C(NC(CN1CCCC1)c1ccccc1)c1ccc(-c2ccncc2)cc1 (stereo not drawn) [Example 31, N-(1-phenyl-2-pyrrolidin-1-ylethyl)-4-pyridin-4-ylbenzamide]
< 50 nM | C[C@@H](NC(=O)c1ccc(-c2ccncc2)cc1)c1ccc(Cl)cc1 [Example 90, N-[(1R)-1-(4-chlorophenyl)ethyl]-4-pyridin-4-ylbenzamide]
